# Tests used:
# [1] = target: SULT1B1-WT (6xHis tagged) (Homo sapiens, UniProt O43704, L145V); experiment: intrinsic fluorescence titration; type: binding
# [2] = target: SULT1B1-WT (6xHis tagged) (Homo sapiens, UniProt O43704); experiment: intrinsic fluorescence titration; type: binding
# Sequence of SULT1B1-WT (6xHis tagged) (Homo sapiens, UniProt O43704) (O43704 whole entry): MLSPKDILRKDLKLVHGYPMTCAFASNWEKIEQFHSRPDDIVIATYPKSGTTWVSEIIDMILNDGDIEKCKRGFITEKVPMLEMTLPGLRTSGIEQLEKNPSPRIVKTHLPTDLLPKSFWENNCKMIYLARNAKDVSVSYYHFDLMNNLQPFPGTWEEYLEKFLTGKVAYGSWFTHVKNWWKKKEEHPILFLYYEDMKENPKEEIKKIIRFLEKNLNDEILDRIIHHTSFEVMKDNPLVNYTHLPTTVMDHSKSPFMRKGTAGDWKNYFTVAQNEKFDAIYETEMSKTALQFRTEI
# Sequence of SULT1B1-WT (6xHis tagged) (Homo sapiens, UniProt O43704, L145V) (O43704 whole entry L145V): as the sequence (O43704 whole entry) above, with L145V counted along it
Kd [1] [nM],Kd [2] [nM],Compound
980,872,Nc1ncnc2c1ncn2[C@@H]1O[C@H](COP(=O)(O)OS(=O)(=O)O)[C@@H](OP(=O)(O)O)[C@H]1O [PAPS]
405,–,Nc1ncnc2c1ncn2[C@@H]1O[C@H](COP(=O)(O)O)[C@@H](OP(=O)(O)O)[C@H]1O [PAP]

# — paper PMC6196722 (Xenobiotica; the fate of foreign compounds in biological …, 2017)
